Series [1] deals with alkali burn corneal wounds in ex vivo mouse eyes. The experiment in a line: corneal epithelial wound healing in ex vivo mouse eyes. As to conditions: for initial wound area: 0–2 h after wound. More on the design: species or system C57BL/6 mice. An excerpt: For the study, C57BL/6 mice (Laboratory Animal Centre, the University of Eastern Finland) were euthanized, and the eyes were excised carefully with sterile forceps and micro-scissors to avoid any damage to the cornea. The eyes were transported in ice-cold Dulbecco’s modified Eagle’s Medium/Ham’s F12 (DMEM/F-12, Gibco, Life Technologies, Carlsbad, CA, USA). Then the eyes were adhered to a Petri dish with tissue adhesive (3M Vetbond, St. Paul, MN, USA). The corneal epithelial wound was produced by placing an alkali soaked (0.5% sodium hydroxide) Whitman filter paper of 2 mm diameter on the corneal surface for 2 min, as reported earlier. After removal of the filter paper, the remaining epithelium on the alkali-exposed surface was carefully removed with a micro scalpel, and the eyes were rinsed with PBS. Pre-warmed UAMC-3203 (10 mL of 10 nM, 1µM, 10 µM, and 50 µM solutions) was added in serum-free media that was supplemented with 1% penicillin-streptomycin solution ([…], 0.1 mg/mL streptomycin) (Corning, Ref 30-002-CI, Mediatech Inc., Discovery Boulevard, Manassas, VA, USA) to the Petri dishes so that the eyes were submerged. The serum-free medium without UAMC-3203 was used as the negative control, and the medium with 10% FBS was used as the positive control. The samples were cultivated under standard tissue culture conditions (37 °C, 5% CO2-atmosphere, and 95% relative humidity) for 48 h. In order to measure the wound area, images were taken with a Zeiss Axio Scope A1 microscope (Carl Zeiss Microscopy GmbH, Oberkochen, Germany) at different time points (initial (in less than 2 h after wound), 6, 24, 30, and 48 h). For imaging, the media was removed from the dish, and 0.1% fluorescein (2 µL) was added to the corneal surface, followed by PBS (10 µL) to rinse excess fluorescein. A clean tissue was then used to soak excess fluorescein and PBS, and the medium was added again to the dish after imaging. The medium was changed after 24 h. The wound area was quantified with Fiji software.

The next series concerns ferroptosis. Details: method as in PMID 30354101. As to conditions: read-out: in vitro potency IC50 (ferroptosis); cited from earlier work.
For the next series, the system named is HCE cells. The experiment in a line: in vitro cytotoxicity, MTT assay. The class given is cell-based, human. The conditions noted are these: 3 h exposure. The protocol:
The cytotoxicity of UAMC-3203 was assessed by MTT assay. The HCE cells were seeded on a 96-well plate at a density of 100,000 cells/well in 200 µL of supplemented growth medium. The next day the cells were washed with PBS (pH 7.2). The cells were then exposed to UAMC-3203 at concentrations 10 nM, 1 µM, 10 µM, and 50 µM for 3 h. For control, cells not exposed to UAMC-3203 cultured in a serum-free medium were used. The cells were then washed twice with PBS and incubated 2 h with 100 µL of 10% of thiazolyl blue tetrazolium bromide (MTT, Sigma-Aldrich, St. Louis, MO, USA) in a serum-free medium. An amount of 100 µL of 20% (w/v) sodium dodecyl sulfate (SDS), N-dimethylformamide (DMF) lysis buffer was added to each well and incubated overnight. The following day, cell viability was evaluated by measuring absorbance at 570 nm with a Victor^2 multilabel plate reader (PerkinElmer, Wallac, St. Paul, MN, USA). The cell viability % was calculated as below:(2) % of cell viability=Abs exposed cells−Abs blank/Abs non−exposed cells−Abs blank×100 where Abs exposed cells = absorbance of cells exposed to UAMC-3203; Abs blank = absorbance of well plates without cells; and Abs non–exposed cells = Absorbance of cells exposed to serum-free medium (i.e., control).
In general terms: Tetrazolium dyes change colour on reduction, which living cells bring about.

Series [2] deals with human corneal epithelial (HCE) cells. The experiment in a line: in vitro scratch assay. As to conditions: for HCE cell migration (%): 72 h, negative control 55.6 ± 17.6%. It counts as cell-based. The procedure: In vitro scratch assay was performed in confluent HCE monolayer as previously reported. HCE cells were seeded on 24-well plates at 1 × 10^5 cells/well incubated for 24 h. The monolayer was scratched with sterile 10 µL pipette tips perpendicular to the lines to create a consistent cell-free area. The cells were washed three times with pre-warmed PBS to remove detached cells. The cells were then exposed to UAMC-3203 at different concentrations (10 nM, 1 µM, 10 µM, 50 µM) in serum-free DMEM (Dulbecco’s Modified Eagle Medium): F12 media that was supplemented with 1% penicillin-streptomycin solution […] penicillin, 0.1 mg/mL streptomycin (Corning, Ref 30-002-CI, Mediatech Inc., Discovery Boulevard, Manassas, VA, USA). Serum-free medium was used as a negative control, and 1.5% fetal bovine serum (FBS 10270, Gibco by Life Technologies, Carlsbad, CA, USA) supplemented medium was used as a positive control. The well plates were then transferred to Cell-IQ (CM Technologies Limited, Tampere, Finland) and maintained in standard tissue culture conditions (37 °C, 5% CO2-atmosphere).
Images were taken immediately after scratch (less than 1 h) and at 6, 12, 24, 30, 42, 48, and 72 h and analyzed by Cell-IQ analyzer. Three independent experiments were performed, using two to three wells for each stimulating condition. Cell migration (A%) was calculated as follows:(1) A%=A0−At/A0×100 where A0 and At represent the wound areas at 0 h and each timepoint, respectively.

Some results are limits rather than exact numbers.

As to `O=S(=O)(NCCN1CCNCC1)c1ccc(NC2CCCCC2)c(NCc2ccccc2)c1` [UAMC-3203], the figures for the initial wound area in series [1] (10 nM), in series [1] (1 µM) and in series [1] (10 µM) were 2.59 ± 0.27 mm^2, 2.46 ± 0.42 mm^2 and 2.44 ± 0.52 mm^2, respectively. The “wound area at 48 h” value in series [1] (10 nM) is 0.22 ± 0.16 mm^2; in series [1] (1 µM), 0.35 ± 0.3 mm^2; in series [1] (10 µM) it was 0.10 ± 0.21 mm^2. In addition, the “wound area compared to negative control” value is listed as “significantly lower wound area at 48 h” in series [1] (10 nM, p = 0.03); “no notable difference at any time point” in series [1] (1 µM); “significant difference in wound area at 24–48 h” in series [1] (10 µM, p ≤ 0.005). This compound also gave a wound healing in series [1] (10 nM–10 µM) above 85%. In addition, the “change of corneal epithelial wound area” value in series [1] (50 µM) is listed as “did not cause any changes in the corneal epithelial wound area”. Moreover, the “optimal concentration for wound healing” value in series [1] (ex vivo) was found to be 10 µM. The concentration for half-maximal inhibition (IC50) (as a rule, the concentration needed to halve the response being measured) in the series with ferroptosis was 10 nM. The “toxicity to HCE cells” value in the series on HCE cells (10 nM) and in the series with HCE cells (1 µM) was “did not cause any toxicity” throughout. Besides, the HCE cell viability in the series with HCE cells (10 µM) is recorded as 75 ± 6.7%; in the series on HCE cells (50 µM) it was 39.2 ± 5.6%. The “HCE cell migration (%)” value is reported as 84.9 ± 12.5% in series [2] (10 nM) and 76.6 ± 15.2% in series [2] (1 µM). In addition, the “cell migration compared to negative control” value in series [2] (10 µM) is listed as “no notable difference at any time point”. For the same compound, in series [2] (50 µM), the “change of scratch area” value is recorded as “did not cause any changes in the scratch area”. Also, the “optimal concentration for corneal epithelial wound healing effect in vitro” value in series [2] (in vitro) is 10 nM.

The values are drawn from PMC9863691, “A Novel Ferroptosis Inhibitor UAMC-3203, a Potential Treatment for Corneal Epithelial Wound” (Pharmaceutics, 2022).
